# According to PubChem BioAssay (NCI):
#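 Abbreviation: GI50, concentration required for 50% inhibition of growth. TGI denotes the concentration required for complete inhibition of growth.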
# Columns and labels:
# Experiment in all cases: growth of human tumour cells (NCI), 384-well format
# A549 NSCLC = system: A549 NSCLC
# CAKI-1 renal = system: CAKI-1 renal
# CCRF-CEM leukemia = system: CCRF-CEM leukemia
# HOP-62 NSCLC = system: HOP-62 NSCLC
# LOX IMVI melanoma = system: LOX IMVI melanoma
# MALME-3M melanoma = system: MALME-3M melanoma
# MDA-MB-231 breast = system: MDA-MB-231 breast
# MDA-MB-468 breast = system: MDA-MB-468 breast
# NCI-H322M lung = system: NCI-H322M lung
# SF-295 CNS = system: SF-295 CNS
# SK-MEL-5 melanoma = system: SK-MEL-5 melanoma
# SNB-75 CNS = system: SNB-75 CNS
# UACC-257 melanoma = system: UACC-257 melanoma
SMILES,GI50 (A549 NSCLC),TGI (A549 NSCLC),GI50 (CAKI-1 renal),TGI (CAKI-1 renal),GI50 (CCRF-CEM leukemia),TGI (CCRF-CEM leukemia),GI50 (HOP-62 NSCLC),TGI (HOP-62 NSCLC),GI50 (LOX IMVI melanoma),TGI (LOX IMVI melanoma),GI50 (MALME-3M melanoma),TGI (MALME-3M melanoma),GI50 (MDA-MB-231 breast),TGI (MDA-MB-231 breast),GI50 (MDA-MB-468 breast),TGI (MDA-MB-468 breast),GI50 (NCI-H322M lung),TGI (NCI-H322M lung),GI50 (SF-295 CNS),TGI (SF-295 CNS),also measured
Cc1nc2ccc(-n3ncc(C(=O)c4cc5ccccc5[nH]4)c3N)cc2[nH]1,9.61 µM,56.8 µM,6.43 µM,39.8 µM,5.85 µM,18.7 µM,12.2 µM,29.6 µM,3.27 µM,8.34 µM,13.1 µM,33.8 µM,4.8 µM,44.9 µM,4.15 µM,16.7 µM,16.4 µM,38.9 µM,10.4 µM,26.9 µM,GI50 (SK-MEL-5 melanoma): 4.2 µM; TGI (SK-MEL-5 melanoma): 17.4 µM; GI50 (SNB-75 CNS): 2.34 µM; TGI (SNB-75 CNS): 19.8 µM; GI50 (UACC-257 melanoma): 15.1 µM; TGI (UACC-257 melanoma): 32.6 µM
CC(C)n1cc(-c2ccc3c(c2)N(C)CC3)c2c(NS(=O)(=O)c3ccn(C)n3)ccnc21,47.1 µM,> 100 µM,> 100 µM,> 100 µM,45.3 µM,> 100 µM,> 78.1 µM,> 100 µM,65.8 µM,> 100 µM,> 100 µM,> 100 µM,> 68.8 µM,> 100 µM,56.8 µM,> 100 µM,> 100 µM,> 100 µM,37 µM,> 91.2 µM,GI50 (SK-MEL-5 melanoma): > 100 µM; TGI (SK-MEL-5 melanoma): > 100 µM; GI50 (SNB-75 CNS): > 88.1 µM; TGI (SNB-75 CNS): > 100 µM; GI50 (UACC-257 melanoma): > 100 µM; TGI (UACC-257 melanoma): > 100 µM
